Test results as given in publication PMC1796864, “Crystal structure of AFV3-109, a highly conserved protein from crenarchaeal viruses” (Virology Journal, 2007).

Biological target: T1, AFV3-109 (Betalipothrixvirus acidiani, UniProt A7WKA5)
T1 construct: homodimer in solution and crystal
Test: tryptophan fluorescence quenching titration
Assay type: binding
Details: read-out: KDapp

Q: With `OCC(O)CO` [glycerol] as the compound, how does the Kd read?
A: Its Kd is 1700 nM.
